In patent publication US4405609A, “Combination and method for increasing feed utilization efficiency in ruminants” (Eli Lilly and Company, priority 1982, dated 1983):

Experiments:
feeder calves = assay: in vivo evaluation of monensin and actaplanin in feeder calves on high-grain ration; settings: 30 grams per ton of each agent in feed
From the text: For example, in a typical in vivo evaluation of the combination of monensin and actaplanin, feeder calves were fed a high-grain ration such as that recited above. Fifteen control animals received the feed ration with no feed efficiency enhancer additive. Another group of fifteen calves received the feed ration containing monensin at 30 grams per ton, while a third group of fifteen animals received the feed ration with actaplanin at 30 grams per ton. A combination of 30 grams per ton of monensin and 30 grams per ton of actaplanin was administered as a feed additive to the ration consumed by a fourth group of fifteen test animals. […] The feed efficiency of such control group, calculated as the pounds of feed consumption required for one pound of animal weight gain, was 13.49.

rumen fluid = assay: in vitro rumen fluid fermentor assay of propionate production; type: cell-based, steers; settings: Monensin 0 PPM, ± SD
From the text: Rumen fluid was obtained from steers which had surgically-installed fistula openings into the rumen. The steers were maintained on a high-grain ration such as the one described above.
A sample of rumen fluid was strained through four layers of cheese cloth and the eluate was collected in vacuum bottles. The particulate matter retained by the cheese cloth was resuspended in enough physiological buffer to return it to the original volume of the rumen fluid, and the eluate was strained again. The buffer utilized is described by Cheng et al., J. Dairy Sci., 38, 1225 (1955).
The two eluates were combined in a separatory funnel and allowed to stand until any remaining particulate matter separated to the top. The clear liquid layer then was removed, diluted with an equal volume of the above-mentioned buffer, and the pH of the solution was adjusted to 7.0.
Fermenter flasks were then changed with the rumen liquor thus prepared. Two fermentor flasks were used per each treatment group. The fermentor flasks were allowed to stand for four days for equilibration, and then measurements of proprionate production were made daily for six days in order to establish a control. Measurements were made by gas chromatographic methods. The fermenter flasks were then fed 20 grams per day of a finely ground ration composed of 20 percent high concentrate ration and 80 percent alfalfa hay. The individual feed efficiency enhancers, and the composition of such enhancers provided by this invention, were added to the feed and dried thereon prior to introduction of the feed ration into the fermentor flasks. The feed ration was introduced into the flasks approximately two times each day. After the initial administration of active ingredient, two days were allowed for reequilibration, and then the volatile fatty acid (VFA) production in each flask was monitored by gas chromatography for five days.

[1] = tested on: Hereford crossbred steers; assay: 140-day monensin/actaplanin feed study, corn silage diet; type: in vivo
Description: The animals were divided into a control group and into eleven test groups. All animals were fed a corn silage diet ad libitum once daily throughout the 140-day study, plus two pounds per head per day of the following cattle supplement:
Test compounds were formulated as a premix with 50 percent by weight of ground corn cobs and 48 percent by weight of ground corn. The premixes were added to the corn silage feed rations in amounts necessary to provide the desired doses of active ingredients to the test animals. The data are presented as the average for the entire group of animals receiving a particular dose of active agent.
In the foregoing table, the Feed Efficiency value is calculated by dividing the average amount of feed consumed (pounds of dry matter intake) by the average daily gain in weight (in pounds). Ideally, the animals will gain more weight on less feed intake. Accordingly, the most improvement in feed utilization efficiency is represented by smaller numbers. […] The optimum in this experiment was 10 g./T. of monensin and 40 g./T. of actaplanin which produced a 13.5% improvement in feed efficiency over untreated controls.

[2] = tested on: Hereford crossbred steers; assay: 140-day narasin/actaplanin feed study; type: in vivo
From the text: Another study was designed to show the unexpected interaction of the polyether narasin in combination with actaplanin. Two hundred forty Hereford crossbred steers averaging about 700 pounds and about 18 months of age were employed. The animals were fed corn silage and high moisture corn, plus two pounds per head per day of the following cattle supplement:
The treatments comprised three dose levels of narasin (0, 4 and 12 g./T.) and four dose levels of actaplanin (0, 10, 20 and 40 g./T.). The animals were randomly assigned to four blocks of twelve partially sheltered pens, each with five animals per pen. The treatments were allotted at random within the four 12-pen blocks such that each treatment was represented in each block. Each of the twelve treatments was replicated four times.

steers [3] = assay: combined data of the three steer studies, percentage response versus untreated controls; type: in vivo
From the text: The following figures report such data expressed as a percentage response when compared with untreated control animals.

steers [4] = assay: further analysis of feed efficiency data: expected versus observed change; type: in vivo
From the text: When the components are utilized in amounts that are about their respective optimal dose levels when used alone, the combination causes an unexpected increase in feed utilization efficiency, which is believed the result of continued unexpected interaction. The results of this further analysis of data is presented below:
In the foregoing table, Δ is the change in feed efficiency of the treated group over the nontreated group. […] The change in efficiency is thus 0.14. The term "EΔ" is the change in efficiency expected with a combination, and is arrived at by adding the Δ values of the individual components at the appropriate dose levels. The term "OΔ" is the change in efficiency over nontreated controls actually observed with animals receiving the combination.

[5] = dose giving largest increase in propionate production
From the text: The compositions provided herein comprise a polyether as defined above and a glycopeptide as defined above. The respective components will be present on a weight basis in a ratio of about 1 to about 10 parts polyether together with about 1 to about 10 parts glycopeptide. For example, a polyether such as narasin will be employed at a concentration level of about 1 to about 20 grams per ton of ruminant feedstuff, together with a glycopeptide such as avoparcin or actaplanin at a concentration level of about 5 to about 50 grams per ton of ruminant feedstuff. A particularly preferred embodiment of the invention is a combination of narasin at about 2 to about 10 grams per ton of feedstuff, and actaplanin at about 5 to about 20 grams per ton. […] Typically, the maximal doses of each component to be employed in accordance with the present invention are substantially the same as the maximal doses for effective growth promotion and feed utilization enhancement by the individual components. […] Similarly, actaplanin at a dose of about 30 grams per ton of feed effects the largest increase in propionate production observed with that agent. […]

[6] = monensin 0, actaplanin 10 grams/Ton
[7] = monensin 0, actaplanin 20 grams/Ton
[8] = monensin 0, actaplanin 40 grams/Ton
[9] = polyether 0, actaplanin 10 g./T.
[10] = polyether 0, actaplanin 20 g./T.
[11] = polyether 0, actaplanin 40 g./T.

Substance: actaplanin
- Average Daily Weight Gain (feeder calves): 1.38 pounds
- feed efficiency (pounds of feed consumption required for one pound of animal weight gain) (feeder calves): 12.36
- Propionate Production (rumen fluid; Actaplanin 1 PPM): 13.0 ± 2.0 mM/24 hours
- Propionate Production (rumen fluid; Actaplanin 4 PPM): 19.9 ± 3.0 mM/24 hours
- Average Daily Dry Matter Intake [1, 6]: 12.86 lbs
- Average Daily Dry Matter Intake % change from control [1, 6]: +4.1%
- Average Daily Weight Gain [1, 6]: 2.44 lbs
- Average Daily Weight Gain % change over control [1, 6]: +9.4%
- Feed Efficiency [1, 6]: 5.28
- Feed Efficiency % change from control [1, 6]: -4.9%
- Average Daily Dry Matter Intake [1, 7]: 12.86 lbs
- Average Daily Dry Matter Intake % change from control [1, 7]: +4.1%
- Average Daily Weight Gain [1, 7]: 2.37 lbs
- Average Daily Weight Gain % change over control [1, 7]: +6.3%
- Feed Efficiency [1, 7]: 5.43
- Feed Efficiency % change from control [1, 7]: -2.0%
- Average Daily Dry Matter Intake [1, 8]: 12.47 lbs
- Average Daily Dry Matter Intake % change from control [1, 8]: +1.0%
- Average Daily Weight Gain [1, 8]: 2.39 lbs
- Average Daily Weight Gain % change over control [1, 8]: +7.2%
- Feed Efficiency [1, 8]: 5.22
- Feed Efficiency % change from control [1, 8]: -6.1%
- feed intake (in words) ([2]; actaplanin alone at 20 g./T.): slight decrease in feed intake
- improved daily gains ([2]; actaplanin alone at 20 g./T.): 5.9%
- Average Daily Dry Matter Intake ([2]; narasin 0, actaplanin 10 g./T.): 16.47 Pounds
- Average Daily Weight Gain ([2]; narasin 0, actaplanin 10 g./T.): 2.54 Pounds
- Average Feed Efficiency ([2]; narasin 0, actaplanin 10 g./T.): 6.47
- Average Daily Dry Matter Intake ([2]; narasin 0, actaplanin 20 g./T.): 16.51 Pounds
- Average Daily Weight Gain ([2]; narasin 0, actaplanin 20 g./T.): 2.66 Pounds
- Average Feed Efficiency ([2]; narasin 0, actaplanin 20 g./T.): 6.19
- Average Daily Dry Matter Intake ([2]; narasin 0, actaplanin 40 g./T.): 16.02 Pounds
- Average Daily Weight Gain ([2]; narasin 0, actaplanin 40 g./T.): 2.59 Pounds
- Average Feed Efficiency ([2]; narasin 0, actaplanin 40 g./T.): 6.18
- Combined Daily Gain Data, percentage response compared with untreated control (steers [3]; [9]): 5.5 percentage
- Combined Feed Efficiency Data, percentage response compared with untreated control (steers [3]; [9]): 1.3 percentage
- Combined Daily Gain Data, percentage response compared with untreated control (steers [3]; [10]): 6.6 percentage
- Combined Feed Efficiency Data, percentage response compared with untreated control (steers [3]; [10]): 4.4 percentage
- Combined Daily Gain Data, percentage response compared with untreated control (steers [3]; [11]): 6.3 percentage
- Combined Feed Efficiency Data, percentage response compared with untreated control (steers [3]; [11]): 5.8 percentage
- Δ, change in feed efficiency of the treated group over the nontreated group (steers [4]; actaplanin 10 g./T. alone): 0.09
- Δ, change in feed efficiency of the treated group over the nontreated group (steers [4]; actaplanin 20 g./T. alone): 0.28
- Δ, change in feed efficiency of the treated group over the nontreated group (steers [4]; actaplanin 40 g./T. alone): 0.36
- Feed efficiency (feed to gain ratio) (steers [4]; monensin 0, actaplanin 10 g./T.): 6.00
- Feed efficiency (feed to gain ratio) (steers [4]; monensin 0, actaplanin 20 g./T.): 5.81
- Feed efficiency (feed to gain ratio) (steers [4]; monensin 0, actaplanin 40 g./T.): 5.73
- dose that effects the largest increase in propionate production observed with that agent [5]: about 30 grams per ton of feed
